Source: ChEMBL document CHEMBL1138695, “Synthesis of stavudine amino acid ester prodrugs with broad-spectrum chemotherapeutic properties for the effective treatment of HIV/AIDS” (Bioorg Med Chem Lett, 2004)
≈ marks a conversion by molar mass, not a printed value.

Experiments:
[1] = In vitro hydrolysis in human plasma; assay type: ADME, cell-free
Priestia megaterium = experiment: Antibacterial activity against Bacillus megatherium; assay type: functional
CCRF-CEM [2] = experiment: Effective concentration of compound achieving 50% protection in CEM cell lines against the cytopathic effect of HIV-1; assay type: functional, cell-based; details: Homo sapiens
CCRF-CEM [3] = experiment: Cytotoxic concentration of compound required to reduce the viability of mock infected CEM cells by 50%; assay type: functional; details: Homo sapiens
Citrobacter freundii = experiment: Antibacterial activity against Citrobacter ferundii; assay type: functional
Escherichia coli = experiment: Antibacterial activity against Escherichia coli NCTC 10418; assay type: functional
Edwardsiella tarda = experiment: Antibacterial activity against Edwardsiella tarda; assay type: functional
Enterobacter = experiment: Antibacterial activity against Enterobacter; assay type: functional
Klebsiella pneumoniae [4] = experiment: Antibacterial activity against Klebsiella pneumoniae; assay type: functional
[5] = system: Mycobacterium tuberculosis; experiment: Antimycobacterial activity against Mycobacterium tuberculosis strain H37Rv; assay type: functional; parameters: concentration or dose not given beside the values
Proteus mirabilis = experiment: Antibacterial activity against Proteus mirabilis; assay type: functional
Plesiomonas shigelloides = experiment: Antibacterial activity against Plesiomonas shigelloides; assay type: functional
Pseudomonas aeruginosa = experiment: Antibacterial activity against Pseudomonas aeruginosa; assay type: functional
Salmonella paratyphi = experiment: Antibacterial activity against Salmonella paratyphi A; assay type: functional, Salmonella enterica subsp. enterica serovar Paratyphi A; details: Salmonella enterica
Shigella sonnei = experiment: Antibacterial activity against Shigella sonnei; assay type: functional
Salmonella enteritidis = experiment: Antibacterial activity against Salmonella enteritidis; assay type: functional, Salmonella enterica subsp. enterica serovar Enteritidis; details: Salmonella enterica
Salmonella typhimurium = experiment: Antibacterial activity against Salmonella Typhimurium; assay type: functional, Salmonella enterica subsp. enterica serovar Typhimurium; details: Salmonella enterica
Shigella boydii = experiment: Antibacterial activity against Shigella boydii; assay type: functional
Staphylococcus aureus = experiment: Antibacterial activity against Staphylococcus aureus; assay type: functional
Vibrio fluvialis = experiment: Antibacterial activity against Vibrio fluvialis; assay type: functional
Vibrio mimicus = experiment: Antibacterial activity against Vibrio mimicus; assay type: functional
Vibrio parahaemolyticus = experiment: Antibacterial activity against Vibrio parahaemolyticus; assay type: functional
Vibrio cholerae [6] = experiment: Antibacterial activity against Vibrio cholerae 01; assay type: functional
Vibrio cholerae [7] = experiment: Antibacterial activity against Vibrio cholerae 0139; assay type: functional
[8] = Selectivity index expressed as the ratio of CC50 to EC50; assay type: functional
Proteus vulgaris = experiment: Antibacterial activity against Proteus vulgaris; assay type: functional
Klebsiella pneumoniae [9] = experiment: Antibacterial activity against Klebsiella ozaenae; assay type: functional; details: subsp. ozaenae
Morganella morganii = experiment: Antibacterial activity against Morganella morganii; assay type: functional
Salmonella typhi = experiment: Antibacterial activity against […] Salmonella typhi; assay type: functional, Salmonella enterica subsp. enterica serovar Typhi; details: Salmonella enterica

Row | Structure (SMILES) | half-life [1] [h] | MIC (Priestia megaterium) [µg/mL] | EC50 (CCRF-CEM [2]) [µM] | CC50 (CCRF-CEM [3]) [µM] | MIC (Citrobacter freundii) [µg/mL] | MIC (Escherichia coli) [µg/mL] | MIC (Edwardsiella tarda) [µg/mL] | MIC (Enterobacter) [µg/mL] | MIC (Klebsiella pneumoniae [4]) [µg/mL] | MIC (Proteus mirabilis) [µg/mL] | MIC (Plesiomonas shigelloides) [µg/mL] | MIC (Pseudomonas aeruginosa) [µg/mL] | MIC (Shigella sonnei) [µg/mL] | MIC (Salmonella enteritidis) [µg/mL] | MIC (Salmonella typhimurium) [µg/mL] | MIC (Shigella boydii) [µg/mL] | MIC (Staphylococcus aureus) [µg/mL] | MIC (Vibrio fluvialis) [µg/mL] | MIC (Vibrio mimicus) [µg/mL] | Selectivity index [8] | also measured
1 | CCn1cc(C(=O)O)c(=O)c2cc(F)c(N3CCN(CC(=O)OCC4C=CC(n5cc(C)c(=O)[nH]c5=O)O4)CC3)cc21 (stereo unspecified) | > 4 | 0.3 (≈ 0.514 µM) | 100 | 210 | 2.44 (≈ 4.18 µM) | 1.22 (≈ 2.09 µM) | 9.76 (≈ 16.7 µM) | 0.3 (≈ 0.514 µM) | 1.22 (≈ 2.09 µM) | 1.22 (≈ 2.09 µM) | 9.76 (≈ 16.7 µM) | 1.22 (≈ 2.09 µM) | 9.76 (≈ 16.7 µM) | 9.76 (≈ 16.7 µM) | 9.76 (≈ 16.7 µM) | 0.61 (≈ 1.05 µM) | 9.76 (≈ 16.7 µM) | 9.76 (≈ 16.7 µM) | 0.61 (≈ 1.05 µM) | 2.1 | Inhibition [5]: 98%; MIC (Salmonella paratyphi): 1.22 µg/mL (≈ 2.09 µM); MIC (Vibrio parahaemolyticus): 1.22 µg/mL (≈ 2.09 µM); MIC (Vibrio cholerae [6]): 0.61 µg/mL (≈ 1.05 µM); MIC (Vibrio cholerae [7]): 0.61 µg/mL (≈ 1.05 µM); MIC (Proteus vulgaris): 9.76 µg/mL (≈ 16.7 µM); MIC (Klebsiella pneumoniae [9]): 1.22 µg/mL (≈ 2.09 µM); MIC (Morganella morganii): 9.76 µg/mL (≈ 16.7 µM)
2 | CCn1cc(C(=O)O)c(=O)c2cc(F)c(N3CCNCC3)cc21 [NORFLOXACIN] | – | 0.0763 (≈ 0.239 µM) | – | – | 0.0381 (≈ 0.119 µM) | 0.0381 (≈ 0.119 µM) | 0.0381 (≈ 0.119 µM) | 0.0763 (≈ 0.239 µM) | 0.0381 (≈ 0.119 µM) | 0.0763 (≈ 0.239 µM) | 0.0763 (≈ 0.239 µM) | 0.0763 (≈ 0.239 µM) | 0.0381 (≈ 0.119 µM) | 0.0381 (≈ 0.119 µM) | 0.0763 (≈ 0.239 µM) | 0.0381 (≈ 0.119 µM) | 0.153 (≈ 0.478 µM) | 0.0763 (≈ 0.239 µM) | 0.153 (≈ 0.478 µM) | – | MIC (Salmonella typhi): 0.0763 µg/mL (≈ 0.239 µM); MIC (Salmonella paratyphi): 0.0381 µg/mL (≈ 0.119 µM); MIC (Vibrio parahaemolyticus): 0.0763 µg/mL (≈ 0.239 µM); MIC (Vibrio cholerae [6]): 0.0763 µg/mL (≈ 0.239 µM); MIC (Vibrio cholerae [7]): 0.0763 µg/mL (≈ 0.239 µM); MIC (Proteus vulgaris): 0.0381 µg/mL (≈ 0.119 µM); MIC (Klebsiella pneumoniae [9]): 0.0381 µg/mL (≈ 0.119 µM); MIC (Morganella morganii): 0.0763 µg/mL (≈ 0.239 µM)
3 | Cc1cn(C2C=CC(COC(=O)CN3CCN(c4cc5c(cc4F)c(=O)c(C(=O)O)cn5C4CC4)CC3)O2)c(=O)[nH]c1=O (stereo unspecified) | 4 | 0.3 (≈ 0.504 µM) | 61.8 | 695 | 0.61 (≈ 1.02 µM) | 0.3 (≈ 0.504 µM) | 4.88 (≈ 8.19 µM) | 0.3 (≈ 0.504 µM) | 1.22 (≈ 2.05 µM) | 0.3 (≈ 0.504 µM) | 0.61 (≈ 1.02 µM) | 1.22 (≈ 2.05 µM) | 4.88 (≈ 8.19 µM) | 0.61 (≈ 1.02 µM) | 0.3 (≈ 0.504 µM) | 0.61 (≈ 1.02 µM) | 4.88 (≈ 8.19 µM) | 0.61 (≈ 1.02 µM) | 0.3 (≈ 0.504 µM) | 11.2 | Inhibition [5]: 100%; MIC (Vibrio parahaemolyticus): 0.3 µg/mL (≈ 0.504 µM); MIC (Vibrio cholerae [6]): 0.3 µg/mL (≈ 0.504 µM); MIC (Vibrio cholerae [7]): 0.61 µg/mL (≈ 1.02 µM); MIC (Proteus vulgaris): 4.88 µg/mL (≈ 8.19 µM); MIC (Klebsiella pneumoniae [9]): 1.22 µg/mL (≈ 2.05 µM); MIC (Morganella morganii): 0.61 µg/mL (≈ 1.02 µM)
4 | O=C(O)c1cn(C2CC2)c2cc(N3CCNCC3)c(F)cc2c1=O [CIPROFLOXACIN] | – | 0.0095 (≈ 0.0287 µM) | – | – | 0.0095 (≈ 0.0287 µM) | 0.019 (≈ 0.0573 µM) | 0.0095 (≈ 0.0287 µM) | 0.019 (≈ 0.0573 µM) | 0.0095 (≈ 0.0287 µM) | 0.0095 (≈ 0.0287 µM) | 0.019 (≈ 0.0573 µM) | 0.0381 (≈ 0.115 µM) | 0.0095 (≈ 0.0287 µM) | 0.0095 (≈ 0.0287 µM) | 0.0095 (≈ 0.0287 µM) | 0.0095 (≈ 0.0287 µM) | 0.0095 (≈ 0.0287 µM) | 0.0095 (≈ 0.0287 µM) | 0.0095 (≈ 0.0287 µM) | – | MIC (Salmonella typhi): 0.019 µg/mL (≈ 0.0573 µM); MIC (Salmonella paratyphi): 0.019 µg/mL (≈ 0.0573 µM); MIC (Vibrio parahaemolyticus): 0.0095 µg/mL (≈ 0.0287 µM); MIC (Vibrio cholerae [6]): 0.0095 µg/mL (≈ 0.0287 µM); MIC (Vibrio cholerae [7]): 0.0095 µg/mL (≈ 0.0287 µM); MIC (Proteus vulgaris): 0.019 µg/mL (≈ 0.0573 µM); MIC (Klebsiella pneumoniae [9]): 0.0381 µg/mL (≈ 0.115 µM); MIC (Morganella morganii): 0.0095 µg/mL (≈ 0.0287 µM)
5 | Cc1cn(C2C=CC(COC(=O)CNNC(=O)c3ccncc3)O2)c(=O)[nH]c1=O (stereo unspecified) | 1 | 2.44 (≈ 6.08 µM) | 0.402 | > 200 | 1250 (≈ 3110 µM) | 156 (≈ 389 µM) | 156 (≈ 389 µM) | 312 (≈ 779 µM) | 1250 (≈ 3110 µM) | 2.44 (≈ 6.08 µM) | 312 (≈ 779 µM) | 1250 (≈ 3110 µM) | 156 (≈ 389 µM) | 4.88 (≈ 12.2 µM) | 1250 (≈ 3110 µM) | 4.88 (≈ 12.2 µM) | 156 (≈ 389 µM) | 1250 (≈ 3110 µM) | 4.88 (≈ 12.2 µM) | > 497 | Inhibition [5]: 90%; MIC (Salmonella typhi): 156 µg/mL (≈ 389 µM); MIC (Salmonella paratyphi): 9.77 µg/mL (≈ 24.3 µM); MIC (Vibrio parahaemolyticus): 1250 µg/mL (≈ 3110 µM); MIC (Vibrio cholerae [6]): 1250 µg/mL (≈ 3110 µM); MIC (Vibrio cholerae [7]): 156 µg/mL (≈ 389 µM); MIC (Proteus vulgaris): 312 µg/mL (≈ 779 µM); MIC (Klebsiella pneumoniae [9]): 9.76 µg/mL (≈ 24.3 µM); MIC (Morganella morganii): 156 µg/mL (≈ 389 µM)
6 | Cc1cn(C2C=CC(COC(=O)CNC(=O)c3ccncn3)O2)c(=O)[nH]c1=O (stereo unspecified) | 1 | 39.1 (≈ 101 µM) | 0.52 | 567 | 1250 (≈ 3230 µM) | 1250 (≈ 3230 µM) | 1250 (≈ 3230 µM) | 39.1 (≈ 101 µM) | 1250 (≈ 3230 µM) | 1250 (≈ 3230 µM) | 312 (≈ 807 µM) | 1250 (≈ 3230 µM) | 312 (≈ 807 µM) | 1250 (≈ 3230 µM) | 1250 (≈ 3230 µM) | 312 (≈ 807 µM) | 1250 (≈ 3230 µM) | 1250 (≈ 3230 µM) | 78.1 (≈ 202 µM) | 1090 | Inhibition [5]: 0%; MIC (Vibrio parahaemolyticus): 1250 µg/mL (≈ 3230 µM); MIC (Vibrio cholerae [6]): 1250 µg/mL (≈ 3230 µM); MIC (Vibrio cholerae [7]): 1250 µg/mL (≈ 3230 µM); MIC (Proteus vulgaris): 1250 µg/mL (≈ 3230 µM); MIC (Klebsiella pneumoniae [9]): 1250 µg/mL (≈ 3230 µM); MIC (Morganella morganii): 312 µg/mL (≈ 807 µM)
7 | Cc1cn(C2C=CC(COC(=O)CN3CCNCC3)O2)c(=O)[nH]c1=O (stereo unspecified) | 0.333 | – | < 0.0636 | > 1000 | – | – | – | – | – | – | – | – | – | – | – | – | – | – | – | > 15700 | –
8 | Cc1cn([C@H]2C=C[C@@H](CO)O2)c(=O)[nH]c1=O [STAVUDINE] | – | – | 0.09 | > 100 | – | – | – | – | – | – | – | – | – | – | – | – | – | – | – | > 1110 | Inhibition [5]: 0%
9 | Cc1cn(C2C=CC(COC(=O)CN(C)C)O2)c(=O)[nH]c1=O (stereo unspecified) | 0.5 | – | 0.343 | 456 | – | – | – | – | – | – | – | – | – | – | – | – | – | – | – | 1330 | –
